# From patent US6410598B1, “Compositions and methods for advanced glycosylation endproduct-mediated modulation of amyloidosis” (priority 1994, dated 2002)
# Experiments:
# [1] = molecular target: fibrillar β-amyloid peptide (Homo sapiens, UniProt P05067); experiment: Co-precipitation with aggregated β-amyloid peptide (supernatant absorbance spectrum after centrifugation); assay type: binding
# Experimental: A preparation of Compound 8, supra, was employed in this assay. Soluble β-amyloid peptide was allowed to aggregate in the presence of phosphate buffer, Compound 8 or dithionitrobenzene and various compounds as described in Example 1, supra. The samples containing dithionitrobenzene are controls for non-specific association of a chromophoric small molecule with precipitated β-amyloid peptide. An additional control sample was prepared containing phosphate buffer and the various compounds, but lacking β-amyloid peptide. After overnight incubation, the tubes were centrifuged at 15,000×g for 30 minutes, half of the supernatant removed and added to a cuvette, and the absorbance spectrum of the supernatant from 200 to 600 nm obtained. In the absence of an association between compound 8 and aggregated sedimentable B-amyloid components of the aggregated assay incubation, compound 8, which has an absorbance maximum at about 350 nm, will remain in the supernatant and its presence and concentration can be readily determined. Alternatively, association of Compound 8 with the precipitated β-amyloid peptide would result in decreased absorbance at 350 nm. […] In the control tubes, no decrease in the absorbance is expected, since the compound should remain soluble.
# soluble βAP = molecular target: T1, soluble βAP (Homo sapiens, UniProt P05067); experiment: Thioflavin-T fluorescence assay of βAP aggregation and seeding; assay type: biochemical; settings: 400 μM βAP 1-28, 0.1 M sodium acetate pH 7.0; 100 mM glucose, 0.05 M aminoguanidine; FIG. 4
# T1 construct: Soluble βAP (400 μM βAP 1-28), 0.1 M sodium acetate in 0.1 M phosphate buffer; purchased Bachem (Torrance, Calif.); host or cells: chemical synthesis
# T1 sequence (P05067 672-699): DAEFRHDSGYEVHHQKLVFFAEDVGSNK
# Experimental: Aggregation of soluble βAP 1-28 or 3AP 1-40 at different concentrations was initiated by addition of 0.1 M sodium acetate (NaOAc) at the indicated pH (between 4.7 and 7.5) and continued for the indicated times. Quantitative aggregate formation with sub-millimolar βAP concentrations was detected using the procedure of LeVine (1992, Protein Science 2:404-410). Briefly, fluorescence of aggregates added to 10 μM Thioflavin-T (Aldrich)/50 mM potassium phosphate buffer, pH 6.0, was measured upon excitation at 450±5 nm and detection of emission at 482±10 nm on a Perkin Elmer LS-50B spectrofluorimeter. Where indicated, small amounts of pre-formed aggregates or “nucleation seeds” were added to the soluble βAP and aggregation initiated with 0.1 M sodium acetate.
# After incubation, protein concentrations of seed preparations were measured and adjusted with buffer to 150 μM final concentration.
# Chain of fibrillar β-amyloid peptide (P05067 672-713 limits assumed): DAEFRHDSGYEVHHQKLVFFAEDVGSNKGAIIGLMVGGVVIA
effect on fluorescent aggregate formation of soluble βAP (soluble βAP),Compound,"absorbance of the supernatant after pelleting of fibrillar β-amyloid peptide versus before pelleting ([1]; 350 nm for Compound 8, overnight incubation, 15,000×g for 30 minutes, FIG. 7)",association with insoluble aggregated β-amyloid peptide ([1]; co-sedimentation in vitro)
,"Cc1ccc2nc(-c3ccc(NCCCC[N+](C)(C)C[C@@]4(O)OC[C@@H](O)[C@@H](O)[C@@H]4O)cc3)sc2c1 [Compound 8, (4-[N-(4-[N-(1-deoxy-β-D-fructopyranos-1-yl)-N,N-dimethylammonio]butyl)amino]phenyl)-6-methylbenzothiazole chloride]",reduced,"specifically associates with insoluble, aggregated β-amyloid peptide deposits"
can inhibit the AGE-enhanced aggregation,N=C(N)NN [aminoguanidine],,
